The record followed here is PubChem BioAssay (NCI).

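48-hour exposure; five concentrations; linearly interpolated endpoints. TGI marks complete inhibition of growth.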

Test systems include ACHN renal; CAKI-1 renal; CCRF-CEM leukemia; EKVX NSCLC; HCT-15 colon; HOP-92 NSCLC; K-562 leukemia; LOX IMVI melanoma; MDA-MB-231 breast; OVCAR-3 ovarian; OVCAR-5 ovarian; OVCAR-8 ovarian; SF-539 CNS; SK-MEL-2 melanoma; SK-OV-3 ovarian; T-47D breast; TK-10 renal; UO-31 renal; NCI/ADR-RES ovarian; RXF 393 renal.
Common to all, as to assay: NCI tumour cell line growth inhibition, 48 h

As for `Cc1c2cnccc2nc2[nH]c3ccncc3c12`, the TGI with ACHN renal was 13.6 µM; in the test with CAKI-1 renal it was 24.9 µM; in the test on CCRF-CEM leukemia, 32.6 µM; with EKVX NSCLC, 96.9 µM; with HCT-15 colon it was 28.8 µM; with HOP-92 NSCLC, 25.3 µM. Further, the TGI with K-562 leukemia is more than 100 µM; in the test with LOX IMVI melanoma, 11.9 µM; with MDA-MB-231 breast it was more than 100 µM; in the test on OVCAR-3 ovarian, 42.4 µM; in the test with OVCAR-5 ovarian, 40.5 µM; in the test with OVCAR-8 ovarian, more than 100 µM. For the same compound, the TGI is more than 100 µM in the test with SF-539 CNS; 27.6 µM in the test with SK-MEL-2 melanoma; more than 100 µM in the test with SK-OV-3 ovarian; more than 100 µM with T-47D breast; 24.3 µM with TK-10 renal; 28.8 µM in the test on UO-31 renal.
For `CCOC(=O)CN1CCSC1=NC#N`, the TGI in the test on CAKI-1 renal, in the test with CCRF-CEM leukemia, with EKVX NSCLC, with HCT-15 colon, in the test with HOP-92 NSCLC and in the test on K-562 leukemia was more than 100 µM in each case. Besides, the TGI with LOX IMVI melanoma was more than 37.6 µM; in the test with NCI/ADR-RES ovarian, more than 100 µM; in the test on OVCAR-3 ovarian, more than 100 µM; in the test with OVCAR-5 ovarian, more than 100 µM; with OVCAR-8 ovarian it was more than 100 µM; with RXF 393 renal, more than 100 µM. In addition, the TGI in the test with SF-539 CNS, with SK-MEL-2 melanoma, in the test on SK-OV-3 ovarian and with UO-31 renal was more than 100 µM throughout.
In the case of `O=[N+]([O-])/C(C(Cl)=C(Cl)Cl)=C1/OCCS1`, the TGI in the test on ACHN renal is 42.2 µM; in the test on CAKI-1 renal, 72.7 µM; in the test on CCRF-CEM leukemia, 35.4 µM; with EKVX NSCLC, more than 100 µM; with HCT-15 colon it was 61 µM; with K-562 leukemia, 77.7 µM. Further, the TGI in the test with LOX IMVI melanoma is 41.8 µM; with MDA-MB-231 breast, 40.2 µM; with NCI/ADR-RES ovarian, 33.6 µM; in the test on OVCAR-3 ovarian, 36.8 µM; with OVCAR-5 ovarian, 92.6 µM; in the test with OVCAR-8 ovarian, 34.4 µM. Further, the TGI with RXF 393 renal was 41.3 µM; in the test with SF-539 CNS, 42.9 µM; in the test on SK-MEL-2 melanoma, 57.2 µM; in the test on SK-OV-3 ovarian, more than 100 µM; with T-47D breast it was 91 µM; in the test on TK-10 renal, 66.4 µM. This compound also displayed a TGI in the test with UO-31 renal of 40.2 µM.
Consider `CCOC(CCCN1CCC2(CC1)C(=O)N(C)CN2c1ccccc1)(OCC)c1ccc(F)cc1`, for which the TGI with ACHN renal stood at 28.6 µM; in the test on CAKI-1 renal it was 49.2 µM; with CCRF-CEM leukemia, 18.7 µM; with EKVX NSCLC, 9.81 µM; in the test with HCT-15 colon, 22.7 µM; in the test with K-562 leukemia, 33 µM. Also, the TGI was 31 µM in the test on LOX IMVI melanoma; 29.3 µM in the test on MDA-MB-231 breast; 33.5 µM in the test with NCI/ADR-RES ovarian; 26.8 µM in the test with OVCAR-3 ovarian; 21.6 µM with OVCAR-5 ovarian; 33.6 µM in the test with OVCAR-8 ovarian. In addition, the TGI came to 34.6 µM in the test on RXF 393 renal; 13.7 µM in the test with SF-539 CNS; 46.8 µM in the test with SK-OV-3 ovarian; 29.8 µM in the test on T-47D breast; 22.2 µM in the test with TK-10 renal; 19.8 µM in the test on UO-31 renal.
Consider `C1=NCCOCCN=Cc2ccccc2OCc2cccc(n2)COc2ccccc21`, for which the TGI is more than 25 µM in the test on ACHN renal; more than 25 µM in the test with CCRF-CEM leukemia; more than 25 µM in the test with EKVX NSCLC; 16.5 µM in the test on HCT-15 colon; more than 25 µM in the test with HOP-92 NSCLC; more than 25 µM in the test with K-562 leukemia. Further, the TGI in the test with MDA-MB-231 breast was 19.1 µM; in the test on NCI/ADR-RES ovarian it was 13.4 µM; with OVCAR-3 ovarian, 9.01 µM; in the test on OVCAR-5 ovarian it was more than 25 µM; with OVCAR-8 ovarian, 16.9 µM; with RXF 393 renal, more than 25 µM. For the same compound, the TGI is 9.13 µM in the test with SF-539 CNS; more than 25 µM in the test on SK-MEL-2 melanoma; more than 25 µM in the test with SK-OV-3 ovarian; 20.4 µM in the test with TK-10 renal; more than 25 µM in the test on UO-31 renal.
For `CN1C(=O)C(O)CC1c1cccc(F)c1` (centres undefined), the TGI in the test with ACHN renal, in the test with CAKI-1 renal, in the test with CCRF-CEM leukemia, with EKVX NSCLC, in the test on HCT-15 colon and with HOP-92 NSCLC was more than 100 µM in each case. The TGI in the test on K-562 leukemia, with LOX IMVI melanoma, in the test with MDA-MB-231 breast, in the test on NCI/ADR-RES ovarian, with OVCAR-3 ovarian and with OVCAR-5 ovarian was more than 100 µM in each case. For the same compound, the TGI in the test with OVCAR-8 ovarian, in the test with RXF 393 renal, in the test on SF-539 CNS, in the test with SK-MEL-2 melanoma, in the test with SK-OV-3 ovarian and with UO-31 renal was more than 100 µM throughout.
Turning to `CC(C)N1CSC(=S)N(Cc2ccccc2)C1`, the TGI with ACHN renal is more than 10 µM; with CCRF-CEM leukemia it was more than 10 µM; with EKVX NSCLC, more than 10 µM; in the test with HCT-15 colon, more than 10 µM; with HOP-92 NSCLC, 8.39 µM; in the test on K-562 leukemia, more than 10 µM. In addition, the TGI with LOX IMVI melanoma is more than 10 µM; in the test on NCI/ADR-RES ovarian, more than 10 µM; in the test with OVCAR-3 ovarian, more than 10 µM; in the test with OVCAR-8 ovarian, more than 10 µM; in the test on RXF 393 renal, 6.27 µM; in the test on SF-539 CNS, 3.35 µM. Further, the TGI in the test with SK-OV-3 ovarian, in the test on T-47D breast and with TK-10 renal was more than 10 µM each time.
As for `COc1ccc(-c2c(C#N)c(S)n(C3OC(CO)C(O)C(O)C3O)c(=O)c2C#N)cc1` (centres undefined), the TGI in the test on ACHN renal, with CAKI-1 renal, in the test with CCRF-CEM leukemia, in the test with HCT-15 colon, in the test on K-562 leukemia and in the test on LOX IMVI melanoma was more than 100 µM in each case. The TGI with MDA-MB-231 breast, in the test on NCI/ADR-RES ovarian, in the test on OVCAR-3 ovarian, in the test on OVCAR-5 ovarian, with OVCAR-8 ovarian and in the test on RXF 393 renal was more than 100 µM throughout. Also, the TGI in the test on SF-539 CNS, in the test with SK-MEL-2 melanoma, with SK-OV-3 ovarian, in the test on T-47D breast, with TK-10 renal and in the test on UO-31 renal was more than 100 µM each time.
